From publication PMC8296573, “Synthesis and Biological Evaluation of Fingolimod Derivatives as Antibacterial Agents” (ACS Omega, 2021)
≈ marks a conversion by molar mass, not a printed value. Where two headings read alike, the source gives them in different places.

How the values were obtained:
[1] = tested on: S. aureus ATCC 25923; test: Antibacterial activity, pre-exposure (planktonic cells and biofilm formation); assay type: cell-based, Staphylococcus aureus; conditions: for MIC / inhibition at 5 µM / inhibition at 10 µM / inhibition at 15 µM / inhibition at 25 µM: Staphylococcus aureus, ATCC25923; for inhibition at 5 µM / inhibition at 10 µM / inhibition at 15 µM / inhibition at 25 µM / Average inhibition %, biofilms viability / Average inhibition %, planktonic cells viability: pre-exposure, ± SD
Procedure, shortened: (§1)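 Pre-exposure format: compounds added with bacteria, 18 h aerobic at 37 °C with shaking. Planktonic growth read by OD and resazurin (20 μM final) fluorescence; biofilms by resazurin viability then crystal violet biomass (A595). Resazurin incubation time/temperature varied by species.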

[2] = tested on: P. aeruginosa ATCC 9027; test: Antibacterial activity, pre-exposure; assay type: cell-based, Pseudomonas aeruginosa; conditions: for Average inhibition %, biofilms viability / Average inhibition %, planktonic cells viability / inhibition at 50 µM / inhibition at 100 µM / inhibition at 150 µM / inhibition at 200 µM: P. aeruginosa ATCC 9027, pre-exposure, ± SD; for inhibition at 50 µM / inhibition at 100 µM / inhibition at 150 µM / inhibition at 200 µM: Pseudomonas aeruginosa, ATCC9027
Procedure, shortened: as §1

[3] = tested on: S. aureus ATCC 25923; test: Antibacterial activity, post-exposure on preformed 18-h-old biofilms; assay type: cell-based, Staphylococcus aureus; conditions: ± SD; for inhibition at 25 µM / inhibition at 50 µM / inhibition at 100 µM / inhibition at 200 µM: Staphylococcus aureus; for inhibition at 25 µM: ATCC25923, 25 µM; for inhibition at 50 µM: ATCC25923, 50 µM; for inhibition at 100 µM: ATCC25923, 100 µM; for inhibition at 200 µM: ATCC25923, 200 µM
Procedure, shortened: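 Biofilms grown 18 h without compound, medium then replaced and compound added for a further 24 h. Planktonic OD and resazurin (20 μM final) fluorescence (ex 560/em 590 nm) read; washed biofilms stained with 20 μM resazurin 30 min at 37 °C, then ethanol-fixed and crystal violet-stained, absorbance 595 nm.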

[4] = tested on: A. baumannii NCTC 13423; test: Antibacterial activity, pre-exposure; assay type: cell-based, Acinetobacter baumannii; conditions: for Average inhibition %, biofilms viability / Average inhibition %, planktonic cells viability / inhibition at 10 µM / inhibition at 15 µM / inhibition at 25 µM / inhibition at 50 µM: A. baumannii NCTC 13423, pre-exposure, ± SD; for inhibition at 10 µM / inhibition at 15 µM / inhibition at 25 µM / inhibition at 50 µM / MIC: Acinetobacter baumannii, NCTC13423
Procedure, shortened: as §1

[5] = 10 µM, read-out: Average inhibition %, biofilms biomass
[6] = 10 µM, read-out: Average inhibition %, planktonic cells turbidity
[7] = 15 µM, read-out: Average inhibition %, biofilms biomass
[8] = 15 µM, read-out: Average inhibition %, planktonic cells turbidity
[9] = 25 µM, read-out: Average inhibition %, biofilms biomass
[10] = 25 µM, read-out: Average inhibition %, planktonic cells turbidity
[11] = 50 µM, read-out: Average inhibition %, biofilms biomass
[12] = 50 µM, read-out: Average inhibition %, planktonic cells turbidity
[13] = read-out: Average inhibition %, biofilms biomass
[14] = read-out: Average inhibition %, planktonic cells turbidity

Question: CCCCCC/C=C/c1ccc(CCC(N)(CO)CO)cc1 [Compound 42, (E)-2-Amino-2-[4-(oct-1-en-1-yl)phenethyl]propane-1,3-diol] was tested. Which MIC ([1]; lowest concentration with no visible growth (>90% inhibition of turbidity and viability of planktonic cells), 18 h, read-out: MIC S. aureus ATCC 25923) did it give?
Answer: 15 to 25 µM (≈ 4.58 to 7.64 µg/mL)

Question: And the inhibition at 5 µM ([1]; 5 µM, read-out: Average inhibition %, biofilms biomass)?
Answer: 41 ± 12.1%

Question: What about the inhibition at 5 µM ([1]; 5 µM, read-out: Average inhibition %, planktonic cells turbidity) of the same compound?
Answer: 18.8 ± 12.6%

Question: And the inhibition at 10 µM [1, 5]?
Answer: 62.5 ± 24.1%

Question: And the inhibition at 10 µM [1, 6]?
Answer: 53.3 ± 32.3%

Question: And the inhibition at 15 µM [1, 7]?
Answer: 80.5 ± 26.4%

Question: And the inhibition at 15 µM [1, 8]?
Answer: 84.6 ± 26.1%

Question: What about the inhibition at 25 µM [1, 9] of the same compound?
Answer: 95.1 ± 0.5%

Question: What about the inhibition at 25 µM [1, 10] of the same compound?
Answer: 99.4 ± 0.5%

Question: And the MIC ([1]; read-out: MIC (S. aureus))?
Answer: 15 to 25 µM (≈ 4.58 to 7.64 µg/mL)

Question: And the “Average inhibition %, biofilms viability” value ([1]; 5 µM)?
Answer: 16.3 ± 4.8%

Question: And the “Average inhibition %, planktonic cells viability” value ([1]; 5 µM)?
Answer: 1.7 ± 3%

Question: What about the “Average inhibition %, biofilms viability” value ([1]; 10 µM) of the same compound?
Answer: 55.9 ± 31%

Question: And the “Average inhibition %, planktonic cells viability” value ([1]; 10 µM)?
Answer: 31.6 ± 54.9%

Question: What about the “Average inhibition %, biofilms viability” value ([1]; 15 µM) of the same compound?
Answer: 81.1 ± 32.3%

Question: What about the “Average inhibition %, planktonic cells viability” value ([1]; 15 µM) of the same compound?
Answer: 66.4 ± 57.5%

Question: What about the “Average inhibition %, biofilms viability” value ([1]; 25 µM) of the same compound?
Answer: 99.2 ± 0.8%

Question: What about the “Average inhibition %, planktonic cells viability” value ([1]; 25 µM) of the same compound?
Answer: 99.6 ± 0.2%

Question: And the “Average inhibition %, biofilms viability” value ([2]; 50 µM)?
Answer: 3.9 ± 6.8%

Question: What about the “Average inhibition %, planktonic cells viability” value ([2]; 50 µM) of the same compound?
Answer: 24.8 ± 10.1%

Question: What about the “Average inhibition %, biofilms viability” value ([2]; 100 µM) of the same compound?
Answer: 1.5 ± 2.6%

Question: And the “Average inhibition %, planktonic cells viability” value ([2]; 100 µM)?
Answer: 15.1 ± 18%

Question: And the “Average inhibition %, biofilms viability” value ([2]; 150 µM)?
Answer: 0.9 ± 1.7%

Question: And the “Average inhibition %, planktonic cells viability” value ([2]; 150 µM)?
Answer: 18.9 ± 31%

Question: What about the “Average inhibition %, biofilms viability” value ([2]; 200 µM) of the same compound?
Answer: 0 ± 0%

Question: And the “Average inhibition %, planktonic cells viability” value ([2]; 200 µM)?
Answer: 27 ± 45%

Question: And the inhibition at 50 µM [2, 11]?
Answer: 30.1 ± 8.8%

Question: And the inhibition at 50 µM [2, 12]?
Answer: 16.3 ± 5.3%

Question: What about the inhibition at 100 µM ([2]; 100 µM, read-out: Average inhibition %, biofilms biomass) of the same compound?
Answer: 30.3 ± 0.8%

Question: What about the inhibition at 100 µM ([2]; 100 µM, read-out: Average inhibition %, planktonic cells turbidity) of the same compound?
Answer: 37.1 ± 13.5%

Question: What about the inhibition at 150 µM ([2]; 150 µM, read-out: Average inhibition %, biofilms biomass) of the same compound?
Answer: 27.7 ± 2.1%

Question: And the inhibition at 150 µM ([2]; 150 µM, read-out: Average inhibition %, planktonic cells turbidity)?
Answer: 45.1 ± 17.4%

Question: What about the inhibition at 200 µM ([2]; 200 µM, read-out: Average inhibition %, biofilms biomass) of the same compound?
Answer: 36.2 ± 10.3%

Question: And the inhibition at 200 µM ([2]; 200 µM, read-out: Average inhibition %, planktonic cells turbidity)?
Answer: 53.5 ± 14.1%

Question: What about the “MIC P. aeruginosa ATCC 9027” value ([2]; pre-exposure, Inactive = no activity up to 200 μM, > = some inhibition but no MIC reached) of the same compound?
Answer: Inactive

Question: And the “Average inhibition %, biofilms viability” value ([3]; 25 µM)?
Answer: 20 ± 6.1%

Question: And the “Average inhibition %, planktonic cells viability” value ([3]; 25 µM)?
Answer: 2.8 ± 5%

Question: What about the “Average inhibition %, biofilms viability” value ([3]; 50 µM) of the same compound?
Answer: 42 ± 16%

Question: And the “Average inhibition %, planktonic cells viability” value ([3]; 50 µM)?
Answer: 19.1 ± 18.9%

Question: What about the “Average inhibition %, biofilms viability” value ([3]; 100 µM) of the same compound?
Answer: 48.3 ± 2.3%

Question: And the “Average inhibition %, planktonic cells viability” value ([3]; 100 µM)?
Answer: 68.7 ± 18.2%

Question: What about the “Average inhibition %, biofilms viability” value ([3]; 200 µM) of the same compound?
Answer: 44.8 ± 10.4%

Question: And the “Average inhibition %, planktonic cells viability” value ([3]; 200 µM)?
Answer: 35.1 ± 44.8%

Question: And the inhibition at 25 µM [3, 13]?
Answer: 39 ± 2.5%

Question: And the inhibition at 25 µM [3, 14]?
Answer: 12 ± 9.6%

Question: And the inhibition at 50 µM [3, 13]?
Answer: 54.1 ± 1.9%

Question: And the inhibition at 50 µM [3, 14]?
Answer: 29.7 ± 16.3%

Question: What about the inhibition at 100 µM [3, 13] of the same compound?
Answer: 54.8 ± 5.9%

Question: What about the inhibition at 100 µM [3, 14] of the same compound?
Answer: 56.9 ± 19.5%

Question: And the inhibition at 200 µM [3, 13]?
Answer: 59.8 ± 21%

Question: What about the inhibition at 200 µM [3, 14] of the same compound?
Answer: 46.2 ± 27.3%

Question: And the “Average inhibition %, biofilms viability” value ([4]; 10 µM)?
Answer: 0.4 ± 0.3%

Question: What about the “Average inhibition %, planktonic cells viability” value ([4]; 10 µM) of the same compound?
Answer: 13.5 ± 3.1%

Question: What about the “Average inhibition %, biofilms viability” value ([4]; 15 µM) of the same compound?
Answer: 12.8 ± 7.2%

Question: And the “Average inhibition %, planktonic cells viability” value ([4]; 15 µM)?
Answer: 6 ± 6.6%

Question: What about the “Average inhibition %, biofilms viability” value ([4]; 25 µM) of the same compound?
Answer: 47.6 ± 37.1%

Question: What about the “Average inhibition %, planktonic cells viability” value ([4]; 25 µM) of the same compound?
Answer: 33.1 ± 52.5%

Question: What about the “Average inhibition %, biofilms viability” value ([4]; 50 µM) of the same compound?
Answer: 87.7 ± 9.8%

Question: And the “Average inhibition %, planktonic cells viability” value ([4]; 50 µM)?
Answer: 81 ± 27.7%

Question: What about the inhibition at 10 µM [4, 5] of the same compound?
Answer: 2.4 ± 4.3%

Question: What about the inhibition at 10 µM [4, 6] of the same compound?
Answer: 0%

Question: What about the inhibition at 15 µM [4, 7] of the same compound?
Answer: 6.2 ± 6%

Question: What about the inhibition at 15 µM [4, 8] of the same compound?
Answer: 0.6 ± 1%

Question: And the inhibition at 25 µM [4, 9]?
Answer: 18.2 ± 21.6%

Question: What about the inhibition at 25 µM [4, 10] of the same compound?
Answer: 40.8 ± 42.7%

Question: What about the inhibition at 50 µM [4, 11] of the same compound?
Answer: 67.2 ± 13.9%

Question: And the inhibition at 50 µM [4, 12]?
Answer: 83.1 ± 17.5%

Question: And the MIC ([4]; pre-exposure, Inactive = no activity up to 50 μM, > = some inhibition but no MIC reached, read-out: MIC A. baumannii NCTC 13423)?
Answer: > 50 µM

Question: And the MIC ([4]; supplementary molecular formula strings sheet, read-out: MIC (A. baumannii))?
Answer: > 50 µM
